Series [1] can be described thus: Solubility and hygroscopicity. It is filed as physicochemical.
Series [2] is described as follows: Acute toxicity (LD 50) in the mouse. As to conditions: mouse, in vivo, ip, intraperitoneal, mice. It is filed as in vivo.
The nature of series [3]: Acute toxicity (LD 50) in the mouse. As to conditions: mouse, in vivo, po. It counts as in vivo. The source says: (§1) The oral LD-50 is 16.50 g/kg for DL and 18.25 g/kg for L(+).
In series [4] the test system is mice. As to the kind of experiment: Acute toxicity (LD 50) in the mouse. The settings on record: for LD-50: oral, mouse; for LD50: intraperitoneal, mice. It counts as in vivo.
A further series deals with depression. As to the kind of experiment: Clinical tests in depression. It is filed as in vivo. The settings on record: human. The source says: (§2) The importance of the compounds according to the invention was confirmed by clinical tests.
A short description of series [5]: Pharmacological study, overall comparison. As to conditions: for pharmacological properties: in vivo. It is filed as in vivo.
Series [6] deals with hyperactivity due to the association of amphetamine and chlorodiazepoxide. As to the kind of experiment: Inhibition of hyperactivity due to the association of amphetamine and chlorodiazepoxide (actography). The settings on record: 500 and 1000 mg/kg i.p., 1 hour and 3 hours before (+) amphetamine sulphate (5 mg/kg) and chlorodiazepoxide (25 or 50 mg/kg). It is filed as in vivo, mouse. As for the experimental part: (b) Inhibition of hyperactivity due to the association of amphetamine and chlorodiazepoxide;
Simultaneous intraperitoneal administration of (+) amphetamine sulphate (5 mg/kg) and chlorodiazepoxide (25 or 50 mg/kg) to mice produced hyperactivity which was measured by the actography method, wherein the mice are placed in pairs in three suspended cages and their movements are recorded.

In the next series the test system is rat. As to the kind of experiment: Hypothermic effect on the rat (rectal temperature). It counts as in vivo. As to conditions: 1 g/kg intraperitoneal. The source says: (a) A hypothermic effect on the rat.
The next series has as its system exploratory activity. As to the kind of experiment: Exploratory activity in the perforated board test. It counts as in vivo, mouse. As to conditions: mice. The source says: (c) The reduction of exploratory activity in the `perforated board` test (Boissiet and Simon-Arch-Int. Pharmacodyn. 1964, 147, 3-4).
Series [7] concerns manic-depressive psychoses. As to the kind of experiment: Clinical tests in manic-depressive psychoses. It is filed as in vivo, human. As for the experimental part: as §2
Lithium N-acetyl tryptophanate was used to treat manic-depressive psychoses.
A person was treated for a manic-depressive psychosis for 6 years. Relapses normally occurred in spring. They were not prevented either by tricyclic drugs or by IMAO substances. Treatment with lithium carbonate produced oligo-menorrhoea, although the patient normally had regular periods.

In series [8] the test system is analgesia produced by morphine. As to the kind of experiment: Heating plate test (analgesia produced by morphine). It is filed as in vivo.
Another series has as its system reserpine ptosis. As to the kind of experiment: Reserpine anti-ptosis effect. It is filed as in vivo, mouse. As for the experimental part:
(d) A reserpine anti-ptosis effect. Increasing doses of the test product were subcutaneously administered to male mice, 30 minutes before intraperitoneal injection of reserpine. The ptosis was measured every half-hour for 5 hours by the method of Rubin et Coll. (observation of the occlusion of the lids of each eye). The percentage protection against ptosis was calculated, compared with controls. Lithium acetyl tryptothanate reduced ptosis produced by reserpine, to an extent which increased up to a dose of 800 mg/kg (45% reduction).

Series [9] relates to amphetamine hyperactivity. As to the kind of experiment: Potentiation of amphetamine hyperactivity (actography). It counts as in vivo, mouse. The source says:
(f) Potentiation of amphetamine hyperactivity.

In series [10] the test system is mice. As to the kind of experiment: Acute toxicity (LD 50) in the mouse. It is filed as in vivo.
Description: as §1

Series [11] concerns gastric ulcers. As to the kind of experiment: Anti-ulcer effect, Shay method (ligature of the pylorus). It counts as in vivo, mouse. As to conditions: for ED50: mouse, read-out: DE-50 (anti-ulcer dose 50). As for the experimental part: (§3) Mg acetyl tryptophanate dissolved in twice-distilled water was administered 48 hours before, 24 hours before and at the moment when the mouse was put under constraint, or 24 hours before and 1 hour before the ligature of the pylorus.
(§4) The DE-50 (anti-ulcer dose 50) of orally-administered Mg acetyl tryptophanate, measured by the stress-ulcer method, was 1700 mg/kg. The DE-50 of intraperitoneally administered Mg acetyl tryptophanate was 230 mg/kg, measured by the stress-ulcer method (i.e. one-tenth of the LD-50) compared with 16 mg/kg (33/100 of the LD-50) for prifinium bromide; measured by the Shay method, the DE-50 was 340 mg/kg (14/100 of the LD-50) for Mg acetyl tryptophanate, compared with 25 mg/kg (52/100 of the LD-50) for prifinium bromide under the same conditions.

The test system of series [12] is gastric ulcers. As to the kind of experiment: Anti-ulcer effect, stress-ulcer method of Rossi et Coll. It counts as in vivo, mouse. As to conditions: for DE-50 as fraction of the LD-50 / ED50: stress-ulcer method; for ED50: mouse, read-out: DE-50 (anti-ulcer dose 50). As for the experimental part:
as §3, §4

A short description of series [13]: Acute toxicity (LD-50) in the rat. As to conditions: in vivo.
Description: as §1

Series [14] has as its system pentobarbitone sleeping time. As to the kind of experiment: Pentobarbitone sleeping time. It is filed as in vivo. As to conditions: mouse, 35 mg/kg pentobarbitone 5 minutes before sub-cutaneous product.

Some results are limits rather than exact numbers.

`CC(=O)NC(Cc1c[nH]c2ccccc12)C(=O)O` (racemic) [Lithium N-acetyl tryptophanate (DL), Li N-acetyl tryptophan (DL)]: in [1], the solubility in water result is on record as “very soluble”. The LD50 came to 3400 mg/kg in series [2] and 8700 mg/kg in [3].

On to `CC(=O)NC(Cc1c[nH]c2ccccc12)C(=O)O` (racemic) [Morpholine N-acetyl tryptophanate, morpholine N-acetyl tryptophanate], for which the “solubility in chlorinated solvents” value in series [1] (chlorinated solvents) is “slightly soluble”. The solubility in water result in series [1] is “very soluble”. In the series on mice [4], this molecule displayed an LD-50 of 16000 mg/kg. Besides, in the series with depression, the “effect on sleep, sthenic action and headaches” value (shortened to “effect on sleep”) is “producing normal sleep, accompanied by a daily sthenic action and the control of refractory headaches”; the “use in the treatment of depression” value is recorded as “of use in the treatment of depression”. The pharmacological properties entry in [5] is listed as “very similar to those of magnesium N-acetyl tryptophanate”.

Turning to `CC(=O)NC(Cc1c[nH]c2ccccc12)C(=O)O` (stereo not drawn) [Lithium N-acetyl tryptophanate, lithium N-acetyl tryptophanate], in [6], the reduction in hyperactivity result is on record as “very marked reduction in hyperactivity”. In the series with rat, the “duration of progressive reduction of rectal temperature after injection” value worked out at 110 min and the “temperature of the rectum” value is “progressively reduces the temperature of the rectum”. The mobility result in the series on exploratory activity (1000 mg/kg intraperitoneal) is “very marked increase in mobility”. Also, the exploratory activity result in the series with exploratory activity (1500 mg/kg intraperitoneal) is reported as “significant reduction in exploratory activity”. In [7] (human, in vivo), the tolerance by patients entry was “tolerated by the patients better than lithium carbonate”. The prevention of relapses entry in series [7] (manic-depressive psychoses) is on record as “appeared to prevent relapses into cyclothymia”. Moreover, the “effect on analgesia produced by morphine” value in series [8] is reported as “did not affect analgesia produced by morphine”. Moreover, in the series on reserpine ptosis (800 mg/kg subcutaneous, 30 minutes before i.p. reserpine, male mice), the “reduction of ptosis produced by reserpine” value turned out to be 45%. The “excitation with 5 mg/kg dexamphetamine sulphate plus product (actography)” value in [9] (500 mg/kg with 5 mg/kg i.p. dexamphetamine sulphate, mice) is reported as “to a considerably greater extent than with dexamphetamine sulphate alone”. For the same molecule, the toxicity in words result in the series on mice [10] (mouse, in vivo) is “only slightly toxic”. For the same molecule, in the series with mice [10] (oral), the “oral toxicity in words” value is listed as “low”.

In the case of `CC(=O)N[C@@H](Cc1c[nH]c2ccccc12)C(=O)O` [Lithium N-acetyl tryptophanate L(+), Lithium N-acetyl tryptophanate in the L(+) form], in [1] (chlorinated and aromatic solvents), the “solubility in chlorinated and aromatic solvents” value is “very slightly soluble”. Further, in series [1] (ethyl alcohol), the “solubility in ethyl alcohol” value is reported as “soluble”. Also, the solubility in water entry in [1] was “soluble”. The LD50 in series [2] stood at 3250 mg/kg; in series [3], 10500 mg/kg.

In the case of `CC(=O)NC(Cc1c[nH]c2ccccc12)C(=O)O` (stereo not drawn) [Magnesium N-acetyl tryptophanate, magnesium N-acetyl tryptophanate], the entries for the “DE-50 as fraction of the LD-50” value with gastric ulcers [11] and in the series on gastric ulcers [12] (intraperitoneal) were 14/100 and “one-tenth”, respectively. Further, the ED50 was determined as 340 mg/kg with gastric ulcers [11]; 230 mg/kg with gastric ulcers [12] (ip, intraperitoneal); 1700 mg/kg in the series with gastric ulcers [12] (oral). Also, the “anti-ulcer effect compared with prifinium bromide” value in the series on gastric ulcers [12] (both ulcer methods) is listed as “slightly lower anti-ulcer effect than prifinium bromide”. Further, in the series with gastric ulcers [12] (both ulcer methods), the “safety in therapy compared with prifinium bromide” value is given as “safer in therapy”. In addition, the 50% lethal dose (LD50) in series [13] (ip, intraperitoneal) was 1350 mg/kg; in series [13] (oral), over 8000 mg/kg. In series [14], the average sleeping time result was “increased the average sleeping time to an extent proportional to the dose”. Moreover, the “effect on sleep” value in the series with depression was “producing normal sleep, accompanied by a daily sthenic action and the control of refractory headaches”. Moreover, in the series with depression, the “use in the treatment of depression” value is “of use in the treatment of depression”. In addition, the “reserpine anti-ptosis effect in words” value with reserpine ptosis (mouse, in vivo) is “only a very slight reserpine anti-ptosis effect”. Besides, the “action compared with lithium acetyl tryptophanate” value in series [5] (measured by the same tests) is “slower but more prolonged”.

On to `O=C(O)O` [Lithium carbonate, lithium carbonate], for which, in [7] (observation No. 1), the lithaemia was at most 1 meq; the “side effect on menstruation” value is reported as “oligo-menorrhoea”; the “side effects during treatment” value is “nausea and attacks of vomiting”.

`CC(=O)NC(Cc1c[nH]c2ccccc12)C(=O)O` (racemic) [Monoethanolamine N-acetyl tryptophanate, monoethanolamine N-acetyl tryptophanate (DL)]: the “solubility in chlorine and hydrocarbon derivatives” value in series [1] (chlorine and hydrocarbon derivatives) is “insoluble”. In addition, the solubility in water result in [1] is “fairly soluble”. Besides, in the series with mice [4], the LD-50 result is listed as “above 18 g/kg”. In the series on depression, the “effect on sleep” value was “producing normal sleep, accompanied by a daily sthenic action and the control of refractory headaches”; the “use in the treatment of depression” value is “of use in the treatment of depression”. In series [5], the pharmacological properties entry is given as “very similar to those of magnesium N-acetyl tryptophanate”.

`CC[N+]1(CC)CCC(=C(c2ccccc2)c2ccccc2)C1C` (stereo not drawn) [Prifinium bromide, prifinium bromide, reference compound]: the “DE-50 as fraction of the LD-50” value was 52/100 in the series on gastric ulcers [11] and 33/100 in the series with gastric ulcers [12] (intraperitoneal). Also, the ED50 was determined as 25 mg/kg with gastric ulcers [11] and 16 mg/kg in the series with gastric ulcers [12] (ip, intraperitoneal).

For `C[C@H](N)Cc1ccccc1` [Dexamphetamine sulphate, dexamphetamine sulphate, reference compound], the “excitation, dexamphetamine sulphate alone” value in series [9] (5 mg/kg intraperitoneal, mouse) was “did not produce very marked excitation”.

On to `CC(=O)N[C@@H](Cc1c[nH]c2ccccc12)C(=O)O` [Magnesium N-acetyl tryptophanate L(+), L(+) magnesium N-acetyl tryptophanate], for which the solubility in water entry in [1] is listed as “very soluble”. Also, the results for the “LD50” value (in the series on mice [4]; in series [3]) were 2300 mg/kg and 18200 mg/kg, respectively.

On to `CC(=O)NC(Cc1c[nH]c2ccccc12)C(=O)O` (racemic) [Magnesium N-acetyl tryptophanate (DL), magnesium N-acetyl tryptophanate (DL)], for which the hygroscopicity result in [1] is “very hygroscopic”. Besides, the figures for the “LD50” value (in the series on mice [4]; in [3]) were 2800 mg/kg and 16500 mg/kg, respectively.

The values are drawn from patent publication US4299838A, “Tryptophan derivatives having an increased effect on the central nervous system” (priority 1974, dated 1981).
